From US8501770B2 (ArQule, Inc., priority 2009, dated 2013)

biological target: Full-length inactive AKT1 (Homo sapiens, UniProt P31749); experiment: Inactive Akt Alpha Screen Assay; type: biochemical; conditions: AlphaScreen assay (values not marked with *); read-out: Akt1 IC50, (AlphaScreen) (μM) (or if marked with “*” HTRF assay)
Outline: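 AlphaScreen read-out (excitation 640 nm, emission 570 nm) after 90 min incubation at room temperature in the dark. Signal comes from crosstide phosphorylation by AKT1, which was activated by added PDK1, MAPKAPK2, ATP and lipid vesicles, captured via phospho-AKT substrate antibody and streptavidin beads.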

Full-length inactive AKT1, sequence (P31749 whole entry): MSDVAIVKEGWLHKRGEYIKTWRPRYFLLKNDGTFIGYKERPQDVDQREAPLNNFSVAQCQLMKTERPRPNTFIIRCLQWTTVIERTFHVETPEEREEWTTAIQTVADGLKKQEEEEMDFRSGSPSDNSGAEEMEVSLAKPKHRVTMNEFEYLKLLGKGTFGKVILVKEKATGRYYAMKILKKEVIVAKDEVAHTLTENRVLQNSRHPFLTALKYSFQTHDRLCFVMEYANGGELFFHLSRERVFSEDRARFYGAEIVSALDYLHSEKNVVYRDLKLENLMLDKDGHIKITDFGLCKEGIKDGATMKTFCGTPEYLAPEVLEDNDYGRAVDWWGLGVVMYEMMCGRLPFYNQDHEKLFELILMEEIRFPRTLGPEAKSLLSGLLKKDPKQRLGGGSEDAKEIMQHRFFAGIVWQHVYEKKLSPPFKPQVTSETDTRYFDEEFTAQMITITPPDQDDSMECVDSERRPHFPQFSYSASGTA

Question: How did the IC50 turn out when `CN1C(=O)COc2ccc(-c3ccc4nc(-c5cccnc5N)n(-c5ccc(C6(N)CCC6)cc5)c4n3)cc21` [Example 438, 6-{3-[4-(1-aminocyclobutyl)phenyl]-2-(2-aminopyridin-3-yl)-3H-imidazo[4,5-b]pyridin-5-yl}-4-methyl-2H-1,4-benzoxazin-3(4H)-one] was run?
Answer: The IC50 was 0.0079 µM.

same assay, conditions: values not marked with "*": AlphaScreen assay; read-out: Akt1 IC50, (AlphaScreen)

Question: With `Nc1ncccc1-c1nc2cccnc2n1-c1ccc(CNCc2ccccc2)cc1` [Example 37] as the compound, how does the IC50 read?
Answer: Its IC50 is 0.205 µM.

Question: For `CC(=O)Nc1ccc(C(=O)NCc2ccc(-n3c(-c4cccnc4N)nc4cccnc43)cc2)cc1` [Example 71], which IC50 is on record?
Answer: The IC50 was 0.605 µM.

same assay, conditions: values not marked with "*"; read-out: Akt1 IC50, (AlphaScreen)

Question: `CCOC(=O)c1cccc(-c2ccc3nc(-c4cccnc4N)n(-c4ccc(C5(N)CCC5)cc4)c3n2)c1` [Example 364, ethyl 3-(3-(4-(1-aminocyclobutyl)phenyl)-2-(2-aminopyridin-3-yl)-3H-imidazo[4,5-b]pyridin-5-yl)benzoate] was tested. Which IC50 did it give?
Answer: Its IC50 is 0.0016 µM.

Question: With `Nc1ncccc1-c1nc2ccc(-c3ccccc3O)nc2n1-c1ccc(CNC(=O)c2cccc(F)c2)cc1` [Example 328, N-(4-(2-(2-aminopyridin-3-yl)-5-(2-hydroxyphenyl)-3H-imidazo[4,5-b]pyridin-3-yl)benzyl)-3-fluorobenzamide] as the compound, how does the IC50 read?
Answer: Its IC50 is 0.047 µM.

Question: For `Nc1ccccc1-c1ccc2nc(-c3cccnc3N)n(-c3ccc(CNC(=O)c4cccc(F)c4)cc3)c2n1` [Example 327, N-(4-(5-(2-aminophenyl)-2-(2-aminopyridin-3-yl)-3H-imidazo[4,5-b]pyridin-3-yl)benzyl)-3-fluorobenzamide], which IC50 is on record?
Answer: Its IC50 is 0.091 µM.

Question: `Cc1ccc2nc(-c3cccnc3N)n(-c3ccc(CC(=O)Nc4cccc(F)c4)cc3)c2n1` [Example 300, 2-(4-(2-(2-aminopyridin-3-yl)-5-methyl-3H-imidazo[4,5-b]pyridin-3-yl)phenyl)-N-(3-fluorophenyl)acetamide] was tested. Which IC50 did it give?
Answer: The IC50 was 0.17 µM.

Question: Which IC50 does the source give for `CS(=O)(=O)Nc1cccc(-c2ccc3nc(-c4cccnc4N)n(-c4ccc(C5(N)CCC5)cc4)c3n2)c1` [Example 375, N-(3-(3-(4-(1-aminocyclobutyl)phenyl)-2-(2-aminopyridin-3-yl)-3H-imidazo[4,5-b]pyridin-5-yl)phenyl)methanesulfonamide] here?
Answer: Its IC50 is 0.0014 µM.

Question: `Cc1cnc2c(c1)nc(-c1cccnc1N)n2-c1ccc(CC(=O)Nc2ccccc2)cc1` [Example 195, 2-(4-(2-(2-aminopyridin-3-yl)-6-methyl-3H-imidazo[4,5-b]pyridin-3-yl)phenyl)-N-phenylacetamide] was tested. Which IC50 did it give?
Answer: The IC50 was 0.076 µM.

Question: Which IC50 does the source give for `CS(=O)(=O)NCc1ccc(-n2c(-c3cccnc3N)nc3cc(-c4cccnc4)cnc32)cc1` [Example 196, N-(4-(2-(2-aminopyridin-3-yl)-6-(pyridin-3-yl)-3H-imidazo[4,5-b]pyridin-3-yl)benzyl)methanesulfonamide] here?
Answer: Its IC50 is 0.14 µM.

Question: With `Nc1ncccc1-c1nc2ccc(-c3ccncc3)nc2n1-c1ccc(CNC(=O)c2cccc(F)c2)cc1` [Example 334, N-(4-(2-(2-aminopyridin-3-yl)-5-(pyridin-4-yl)-3H-imidazo[4,5-b]pyridin-3-yl)benzyl)-3-fluorobenzamide] as the compound, how does the IC50 read?
Answer: Its IC50 is 0.036 µM.

Question: For `Cc1cc2nc(-c3cccnc3N)n(-c3ccc(CNC(=O)c4ccccc4)cc3)c2nc1C` [Example 322, N-(4-(2-(2-aminopyridin-3-yl)-5,6-dimethyl-3H-imidazo[4,5-b]pyridin-3-yl)benzyl)benzamide], which IC50 is on record?
Answer: The IC50 was 0.077 µM.

Question: `CC(=O)Nc1cccc(NC(=O)Cc2ccc(-n3c(-c4cccnc4N)nc4ccc(-c5cccnc5)nc43)cc2)c1` [Example 258, N-(3-acetamidophenyl)-2-(4-(2-(2-aminopyridin-3-yl)-5-(pyridin-3-yl)-3H-imidazo[4,5-b]pyridin-3-yl)phenyl)acetamide] was tested. Which IC50 did it give?
Answer: The IC50 was 0.017 µM.

Question: `N#Cc1cccc(-c2ccc3nc(-c4cccnc4N)n(-c4ccc(C5(N)CCC5)cc4)c3n2)c1` [Example 392, 3-(3-(4-(1-aminocyclobutyl)phenyl)-2-(2-aminopyridin-3-yl)-3H-imidazo[4,5-b]pyridin-5-yl)benzonitrile] was tested. Which IC50 did it give?
Answer: The IC50 was 0.0071 µM.
